{
  "source": "patent US12441704B2",
  "about": "“Compounds active towards nuclear receptors” (NUEVOLUTION A/S, priority 2019, dated 2025)",
  "key": {"[1]": {"target": "T1, RORγ ligand-binding domain fused to Gal4 (Homo sapiens, UniProt P51449)", "T1 construct": "Gal4 (galactose-responsive transcription factor); expressed in transfected cells; host or cells: HEK293", "T1 sequence (P51449 269-508 limits assumed)": "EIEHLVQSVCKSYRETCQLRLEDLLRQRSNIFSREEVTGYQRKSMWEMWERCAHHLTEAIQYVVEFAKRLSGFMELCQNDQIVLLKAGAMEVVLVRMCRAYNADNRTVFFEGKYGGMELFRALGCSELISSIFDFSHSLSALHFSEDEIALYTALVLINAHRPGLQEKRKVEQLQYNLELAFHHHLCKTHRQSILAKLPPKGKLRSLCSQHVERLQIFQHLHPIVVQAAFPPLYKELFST", "assay": "RORγ Reporter Assay (Gal4)", "assay_type": "cell-based", "conditions": "compounds of the present disclosure; value from Table 2 herein; read-out: Gal4 assay EC50", "in_short": "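Percent inhibition was derived from luciferase RLU versus vehicle mean after 24 h compound incubation (37 °C, 0.1% DMSO). The cells were HEK293, transiently co-expressing a Gal4–RORγ ligand-binding-domain fusion plus a UAS-driven luciferase gene.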"}, "Th17 cells": {"system": "Th17 cells", "assay": "Th17 Assay (IL-17 levels in supernatants of differentiating Th17 cells)", "assay_type": "cell-based", "conditions": "168 h; human naive CD4+ T cells differentiated to Th17 for seven days; IL-17 in supernatants by ELISA", "description": "The following modifications were made to the manufacturer's protocol: 1) Incubation with Biotin-Antibody Cocktail and Anti-Biotin MicroBeads was prolonged to 30 minutes, and 2) Cells were washed with 40 mL of Miltenyi buffer. […] Test compounds were tested in triplicates, diluted 1000-fold in medium (final DMSO concentration is 0.1%). Incubated for seven days at 37° C., 5% CO2, 95% humidity, and 2-fluoro-4′-[[4-(4-pyridinylmethyl)-1-piperazinyl]methyl]-α,α-bis(trifluoromethyl)-[1,1′-biphenyl]-4-methanol (SR2211 Calbiochem, Cat. No. 557353) was used as positive control. As negative control, cells were differentiated into Th0 using 5 μg/ml anti-CD28 (BD Pharmingen), 10 ng/ml IL-2 (R&D Systems), 2 μg/ml anti-ILA (R&D Systems) and 2 μg/ml anti-IFNγ (R&D Systems) are negative control. IL-17 levels in supernatants were measured with ELISA (R&D Systems)."}},
  "data": [
    {"smiles": "NC(=O)CN1CCC(CNc2ncnc(N(Cc3ccc(C(F)(F)F)cn3)C3CC3)c2F)C(F)(F)C1", "note": "(single isomer, unassigned) [Example A7-03-1]", "values": [
      {"measurement": "EC50", "setting": "[1]", "value": "< 100", "unit": "nM"},
      {"measurement": "EC50", "setting": "Th17 cells", "value": 83, "unit": "nM"}
    ]}
  ]
}
